Literature values, collected in patent US10842883B2, “Aqueous oral solutions of steroid hormones and hydroxypropyl-β-cyclodextrin with optimised bioavailability” (ALTERGON S.A., priority 2012, dated 2020).

Conditions: Gould et al., Food Chem. Toxicol. 43 (2005)

## CC(O)COC[C@H]1O[C@@H]2O[C@H]3[C@H](O)[C@@H](O)[C@@H](O[C@H]4[C@H](O)[C@@H](O)[C@@H](O[C@H]5[C@H](O)[C@@H](O)[C@@H](O[C@H]6[C@H](O)[C@@H](O)[C@@H](O[C@H]7[C@H](O)[C@@H](O)[C@@H](O[C@H]8[C@H](O)[C@@H](O)[C@@H](O[C@H]1[C@H](O)[C@H]2O)O[C@@H]8COCC(C)O)O[C@@H]7COCC(C)O)O[C@@H]6COCC(C)O)O[C@@H]5COCC(C)O)O[C@@H]4COCC(C)O)O[C@@H]3COCC(C)O (stereo partly drawn) [hydroxypropyl-β-cyclodextrin]
  fraction absorbed after oral administration: about 5%
